{"source": "patent US20100029654A1", "about": "“CARDIOVASCULAR COMPOSITIONS AND USE OF THE SAME FOR THE TREATMENT OF ALZHEIMER'S DISEASE” (MOUNT SINAI SCHOOL OF MEDICINE, priority 2006, published 2010)", "key": {"[1]": {"test": "valsartan concentration in blood (serum) by MRM mass spectrometry", "type": "in vivo, mouse", "settings": "chronically valsartan-treated mice (40 mg/kg)", "excerpt": "A series high throughput studies were initiated to assess and quantify antihypertensive drug levels and related metabolites in Tg 2576 and WT controls following in vivo treatments. […] Presently, using QSTAR (QqTOF) mass spectrometry, which delivers high sensitivity and resolution as well as unparalleled mass accuracy for determination of molecular weights of drugs and related metabolites at femtomole levels, the inventor is proceeding with studies aimed at detecting and eventually quantitating antihypertensive drugs and related metabolites in the brain or CSF. Thus, these technologies will accurate determination of the penetration of the blood brain barrier of candidate Aβ lowering antihypertensives in response to chronic treatments in vivo."}, "[2]": {"system": "primary cortico-hippocampal neuron cultures", "test": "lactate dehydrogenase (LDH) activity assay in parallel neuron cultures", "procedure": "For in vitro treatments drugs available from “The Spectrum Collection” in stocks of 10 mM in DMSO were applied directly to cultures to the desired concentrations (final 1% DMSO); control primary neuron cultures from Tg2576 embryos were treated with vehicle resulting in a final 1% DMSO.\nCell viability was assessed using a commercial available LDH assay kit according to the manufacture's instruction (Promega)."}, "[3]": {"system": "Aβ1-42", "test": "Aβ1-42 content in conditioned medium of primary cortico-hippocampal neuron cultures from Tg2576 mice (ELISA; primary and secondary dose-response screening)", "type": "cell-based, mouse", "settings": "for Ab1-42 (% of ctl): drug 100 μM", "in_short": "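Primary cortico-hippocampal neurons from embryonic Tg2576 mouse brain were seeded on poly-D-lysine-coated 96-well plates at 1.0×10^5 cells per well in serum-free Neurobasal medium with 2% B27, 0.5 mM L-glutamine and 1% penicillin-streptomycin. For primary screening, duplicate wells received 100 μM drug (1% DMSO final). Vehicle-treated cultures served as controls, and Aβ1-42 in conditioned medium was measured by commercial ELISA.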"}, "[4]": {"system": "γ-secretase", "design": "dose or concentration left out as unconfirmed", "settings": "primary Tg2576 neuron cultures, 16 hours"}, "[5]": {"system": "Tg2576 mice", "test": "blood pressure (systolic, diastolic, MAP) by tail-cuff", "type": "in vivo, mouse", "experimental": "FIG. 1 Tg2576 mice are characterized by normal blood pressure under basal conditions. Baseline measurements of systolic, diastolic blood pressure, and mean arteriole blood pressure (MAP) in ˜11 month old female Tg2576 mice. Strain-, age-, gender-matched WT mice were measured using a commercial blood pressure analysis system designed specifically for small rodents (Hatteras Instruments, NC). Following manufacturer's instruction, mice were temporarily immobilized in a restraining chamber and an inflated tail-cuff wrapped around the tail was used to measure the systolic pressure, diastolic pressure, and MAP. Each blood pressure determination was calculated as the mean of 10 individual measurements per animal (n=6-10 group).\nFIG. 6A-C show body weight of mice in response to ˜3 weeks of treatment. […] FIG. 6D-F show the assessment of systolic, diastolic, and MAP blood pressure in Tg2576 mice in response to drug doses below or within the range of those prescribed in hypertension. Blood pressure measurements were conducted using a commercial blood pressure analysis system designed specifically for small rodents (Hatteras Instruments, NC). Following manufacturer's instruction, mice were temporarily immobilized in a restraining chamber and an inflated tail-cuff wrapped around the tail was used to measure pressures. Each blood pressure determination was calculated as the mean of 10 individual measurements per animal. In A-F, values represent mean±SEM values, n=3-5 mice per group. 2-tailed t-test: *P<0.05.\nAssessment of blood pressure and glucose utilization. Mouse blood pressure was routinely recorded using a commercial blood pressure analysis system designed specifically for small rodents (Hatteras Instruments, NC). […] Briefly, mice were given a single dose of glucose post-prandially (i.p. 2 g/kg body weight). Blood was collected from the tail-vein periodically over a 2-hour period. Blood glycemic content was assessed using the OneTouch LifeScan System, (LifeScan, Milpitas, Calif.) following the manufacturer's instruction."}, "[6]": {"biological_target": "β-secretase (Mus musculus, UniProt P56818)", "sequence (P56818 46-501)": "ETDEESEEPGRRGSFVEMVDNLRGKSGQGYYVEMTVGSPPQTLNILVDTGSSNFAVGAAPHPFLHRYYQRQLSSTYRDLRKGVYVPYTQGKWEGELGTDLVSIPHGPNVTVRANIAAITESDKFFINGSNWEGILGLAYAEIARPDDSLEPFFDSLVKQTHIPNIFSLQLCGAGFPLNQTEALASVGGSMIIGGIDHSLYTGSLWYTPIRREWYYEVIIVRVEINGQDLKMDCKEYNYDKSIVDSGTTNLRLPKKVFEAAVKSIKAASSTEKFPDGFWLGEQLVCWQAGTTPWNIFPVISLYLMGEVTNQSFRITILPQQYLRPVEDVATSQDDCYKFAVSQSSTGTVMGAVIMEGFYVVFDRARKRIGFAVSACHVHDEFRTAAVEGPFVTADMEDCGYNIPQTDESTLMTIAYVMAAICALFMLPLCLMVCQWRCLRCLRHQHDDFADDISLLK", "design": "dose or concentration left out as unconfirmed", "settings": "primary Tg2576 neuron cultures, 16 hours"}, "[7]": {"biological_target": "T1, Aβ1-42 peptide (Homo sapiens, UniProt P05067)", "T1 construct": "Lyophilized Aβ1-42 peptide was dissolved", "T1 sequence (P05067 672-713 limits assumed)": "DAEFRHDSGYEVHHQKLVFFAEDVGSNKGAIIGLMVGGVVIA", "test": "Aβ-peptide oligomerization assay in vitro (Western blot, A11 dot blot)", "type": "biochemical", "experimental": "Aβ-peptideoligomerization assay in vitro: Lyophilized Aβ1-42 peptide was dissolved in 1,1,1,3,3,3,-hexafluoro-2-propanol (HFIP, from Sigma), incubated at room temperature for 60 min, aliquoted, vacuum dried and stored at −80° C. Aβ peptide was dissolved in DMSO and diluted into ddH2O to a final concentration of 100 μg/ml. The peptide was then mixed with equal volume of drugs and incubated at 37° C. for 1 day (Klein, W. L. 2002. Neurochemistry International 41:345-352).\nFollowing incubation, samples were centrifuged at 14,000×g for 10 min at 4° C. Supernatants were mixed with 2× SDS sample buffer and separated on a 10-20% Tris-Tricine gradient SDS gel (Invitrogen). The separated peptides were subjected to Western blot using 6E10 antibody (1:1000, Signet, St. Louis). Immunoreactive signals were visualized by using enhanced chemiluminescence detection (Amersham), and quantified densitometrically (Quantity One, Bio-Rad).\nImmunoreactive signals were detected and quantified as described above."}, "[8]": {"system": "primary cortico-hippocampal neuron cultures", "test": "MTT in primary screening"}, "[9]": {"system": "Aβ1-40", "test": "Aβ1-40 content in conditioned medium of primary cortico-hippocampal neuron cultures from Tg2576 mice (ELISA; primary and secondary dose-response screening)", "type": "cell-based, mouse", "settings": "for Ab1-40 (% of ctl): drug 100 μM", "in_short": "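Primary cortico-hippocampal neurons from embryonic Tg2576 mice were plated at 1.0×10^5 cells per well on poly-D-lysine-coated 96-well plates in Neurobasal with 2% B27, 0.5 mM L-glutamine and 1% penicillin-streptomycin. Cultures received drug in 1% DMSO, and Aβ1-40 in the conditioned medium was measured by BioSource ELISA 24 hours after treatment, relative to vehicle controls.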"}, "[10]": {"system": "Aβ1-42", "test": "Aβ1-42 content in conditioned medium of primary cortico-hippocampal neuron cultures from Tg2576 mice (ELISA; primary and secondary dose-response screening)", "type": "cell-based, mouse"}, "[11]": {"settings": "Primary Screening, table sorted by Aβ1-40"}, "[12]": {"settings": "primary screening, table sorted by Aβ1-42"}, "[13]": {"settings": "primary screening, Tg2576 neuron cultures, table sorted by Aβ1-42"}}, "note": "Entries after “also recorded” stand apart in the source; their conditions may differ. Read-outs that look alike come from different tables or passages of the source.", "data": [{"substance": "N-(1-oxopentyl)-N-[[2-(1H-tetrazol-5-yl) [1,1-biphenyl]-4-yl]methyl]-L-valine [Valsartan]", "values": [{"measurement": "steady state levels in the blood (serum)", "setting": "[1]", "value": "successfully detected steady state levels"}, {"measurement": "LDH (% of ctl)", "setting": "[2]; [11]", "value": "94.1 % of ctl"}, {"measurement": "LDH (at 5F-5 M)", "setting": "[2]; Table IV", "value": "no change"}, {"measurement": "LDH at E-5M % of change", "setting": "[2]; drug at E-5M", "value": 13.0, "unit": "%"}, {"measurement": "LDH (% of ctl)", "setting": "[2]; [12]", "value": "94.1 % of ctl"}, {"measurement": "Ab1-42 (% of ctl)", "setting": "[3]; [11]", "value": "42.0 % of ctl"}, {"measurement": "reducing Aβ1-42", "setting": "[3]; primary screening, <85% of ctl", "value": "useful in reducing Aβ1-42"}, {"measurement": "Ab1-42 (% of ctl)", "setting": "[3]; [13]", "value": "42.0 % of ctl"}, {"measurement": "γ-secretase activity", "setting": "[4]", "value": "no detectable change"}, {"measurement": "systolic, diastolic, MAP blood pressure", "setting": "[5]; WT mice, valsartan", "value": "no detectable changes in systolic, diastolic, or MAP"}, {"measurement": "systolic, diastolic, MAP blood pressure", "setting": "[5]; normotensive Tg2576 mice, valsartan 10 or 40 mg/kg/day, chronic", "value": "did not significantly influence systolic, diastolic, or MAP; also recorded: did not influence systolic, diastolic, and MAP blood pressure; also recorded: failed to produce a statistically significant change"}, {"measurement": "β-secretase activity", "setting": "[6]", "value": "selectively inhibition of β-secretase activity"}, {"measurement": "in vitro anti-Aβ oligomerization activity compared with other Aβ-lowering antihypertensives", "setting": "[7]", "value": "qualitatively stronger in vitro anti-Aβ oligomerization activity"}, {"measurement": "Aβ1-42 oligomerization (A11 dot-blot)", "setting": "[7]; 24 hours after incubation, vs vehicle", "value": "prevented Aβ1-42 oligomerization"}, {"measurement": "prevention of oligomerization of Aβ1-42 (and Aβ1-40) into >40 kDa HMW species (Western Blot)", "setting": "[7]; valsartan 10 μM, vs vehicle", "value": "> 5", "unit": "fold"}, {"measurement": "MTT (% of ctl)", "setting": "[8]; [11]", "value": "67.4 % of ctl"}, {"measurement": "MTT (% of ctl)", "setting": "[8]; [12]", "value": "67.4 % of ctl"}, {"measurement": "Ab1-40 (% of ctl)", "setting": "[9]; [11]", "value": "51.6 % of ctl"}, {"measurement": "EC50", "setting": "[9]; Table IV, dose-response 0.01-100 μM, read-out: EC50 (M): Ab-lowering activity Abeta1-40", "value": "1.44e-05", "unit": "M"}, {"measurement": "EC50", "setting": "[9]; conditioned medium of primary cortico-hippocampal neuron cultures from Tg2576 embryos, 24 hours after treatment, relative to vehicle (1% DMSO) control, read-out: EC50 (molar) Aβ1-40", "value": "1.44e-05", "unit": "M"}, {"measurement": "reduced Aβ1-40", "setting": "[9]; primary screening, <85% of ctl", "value": "reduced Aβ1-40"}, {"measurement": "Ab1-40 (% of ctl)", "setting": "[9]; [13]", "value": "51.6 % of ctl"}, {"measurement": "EC50", "setting": "[9]; secondary dose-response screening 0.01-100 μM, 24 hours, read-out: EC50 (molar) Aβ1-40", "value": "1.44e-05", "unit": "M"}, {"measurement": "EC50", "setting": "[10]; Table IV, dose-response 0.01-100 μM, read-out: EC50 (M): Ab-lowering activity Aβ1-42", "value": "1.79e-05", "unit": "M"}, {"measurement": "EC50", "setting": "[10]; conditioned medium of primary cortico-hippocampal neuron cultures from Tg2576 embryos, 24 hours after treatment, relative to vehicle (1% DMSO) control, read-out: EC50 (molar) Aβ1-42", "value": "1.79e-05", "unit": "M"}, {"measurement": "EC50", "setting": "[10]; secondary dose-response screening 0.01-100 μM, 24 hours, read-out: EC50 (molar) Aβ1-42", "value": "1.79e-05", "unit": "M"}]}]}
